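Exposure lasted 48 hours, with cells grown in 96-well plates and compounds tested at five concentrations. The concentration for full growth arrest is given as TGI.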
Tests used:
Assay in all cases: NCI anticancer screen, dose series, 48 h
MOLT-4 leukemia = test system: MOLT-4 leukemia
SK-MEL-28 melanoma = test system: SK-MEL-28 melanoma
MCF7 breast = test system: MCF7 breast
RPMI-8226 leukemia = test system: RPMI-8226 leukemia
HOP-92 NSCLC = test system: HOP-92 NSCLC
HCC-2998 colon = test system: HCC-2998 colon
MDA-MB-435 = test system: MDA-MB-435
LOX IMVI melanoma = test system: LOX IMVI melanoma
UO-31 renal = test system: UO-31 renal
SF-268 CNS = test system: SF-268 CNS
M14 melanoma = test system: M14 melanoma
CCRF-CEM leukemia = test system: CCRF-CEM leukemia
CAKI-1 renal = test system: CAKI-1 renal
SF-295 CNS = test system: SF-295 CNS
HT29 colon = test system: HT29 colon
NCI-H522 lung = test system: NCI-H522 lung
COLO 205 colon = test system: COLO 205 colon
786-0 renal = test system: 786-0 renal
SNB-19 CNS = test system: SNB-19 CNS
HOP-62 NSCLC = test system: HOP-62 NSCLC
DU-145 prostate = test system: DU-145 prostate
SF-539 CNS = test system: SF-539 CNS
KM12 colon = test system: KM12 colon
RXF 393 renal = test system: RXF 393 renal
SW-620 colon = test system: SW-620 colon
MDA-MB-231 breast = test system: MDA-MB-231 breast
A549 NSCLC = test system: A549 NSCLC
NCI/ADR-RES ovarian = test system: NCI/ADR-RES ovarian
UACC-62 melanoma = test system: UACC-62 melanoma
UACC-257 melanoma = test system: UACC-257 melanoma
SNB-75 CNS = test system: SNB-75 CNS
T-47D breast = test system: T-47D breast
HL-60(TB) leukemia = test system: HL-60(TB) leukemia
NCI-H226 lung = test system: NCI-H226 lung
MALME-3M melanoma = test system: MALME-3M melanoma
HS 578T breast = test system: HS 578T breast
OVCAR-5 ovarian = test system: OVCAR-5 ovarian
HCT-15 colon = test system: HCT-15 colon
OVCAR-8 ovarian = test system: OVCAR-8 ovarian
U251 CNS = test system: U251 CNS
MDA-N = test system: MDA-N
PC-3 prostate = test system: PC-3 prostate
SN12C renal = test system: SN12C renal
SR leukemia = test system: SR leukemia
TK-10 renal = test system: TK-10 renal
IGROV1 ovarian = test system: IGROV1 ovarian
K-562 leukemia = test system: K-562 leukemia
NCI-H460 lung = test system: NCI-H460 lung
SK-MEL-2 melanoma = test system: SK-MEL-2 melanoma
BT-549 breast = test system: BT-549 breast
OVCAR-3 ovarian = test system: OVCAR-3 ovarian
ACHN renal = test system: ACHN renal
SK-OV-3 ovarian = test system: SK-OV-3 ovarian
OVCAR-4 ovarian = test system: OVCAR-4 ovarian
EKVX NSCLC = test system: EKVX NSCLC
NCI-H23 lung = test system: NCI-H23 lung
SK-MEL-5 melanoma = test system: SK-MEL-5 melanoma
HCT-116 colon = test system: HCT-116 colon
A498 renal = test system: A498 renal

C[N+](C)(CCNC(=O)c1cccc2cc3ccccc3nc12)Cc1ccc([N+](=O)[O-])cc1
TGI (MOLT-4 leukemia): > 100 µM
TGI (SK-MEL-28 melanoma): > 100 µM
TGI (MCF7 breast): > 100 µM
TGI (RPMI-8226 leukemia): > 100 µM
TGI (HOP-92 NSCLC): > 100 µM
TGI (HCC-2998 colon): > 100 µM
TGI (MDA-MB-435): > 100 µM
TGI (LOX IMVI melanoma): > 100 µM
TGI (UO-31 renal): > 100 µM
TGI (SF-268 CNS): > 100 µM
TGI (M14 melanoma): > 100 µM
TGI (CCRF-CEM leukemia): > 100 µM
TGI (CAKI-1 renal): > 100 µM
TGI (SF-295 CNS): > 100 µM
TGI (HT29 colon): > 100 µM
TGI (NCI-H522 lung): > 100 µM
TGI (COLO 205 colon): > 100 µM
TGI (786-0 renal): > 100 µM
TGI (SNB-19 CNS): > 100 µM
TGI (HOP-62 NSCLC): > 100 µM
TGI (DU-145 prostate): > 100 µM
TGI (SF-539 CNS): > 100 µM
TGI (KM12 colon): > 100 µM
TGI (RXF 393 renal): > 100 µM
TGI (SW-620 colon): > 100 µM
TGI (MDA-MB-231 breast): > 100 µM
TGI (A549 NSCLC): > 100 µM
TGI (NCI/ADR-RES ovarian): > 100 µM
TGI (UACC-62 melanoma): > 100 µM
TGI (UACC-257 melanoma): > 100 µM
TGI (SNB-75 CNS): > 100 µM
TGI (T-47D breast): > 100 µM
TGI (HL-60(TB) leukemia): > 100 µM
TGI (NCI-H226 lung): > 100 µM
TGI (MALME-3M melanoma): > 100 µM
TGI (HS 578T breast): > 100 µM
TGI (OVCAR-5 ovarian): > 100 µM
TGI (HCT-15 colon): > 100 µM
TGI (OVCAR-8 ovarian): > 100 µM
TGI (U251 CNS): > 100 µM
TGI (MDA-N): > 100 µM
TGI (PC-3 prostate): > 100 µM
TGI (SN12C renal): > 100 µM
TGI (SR leukemia): > 100 µM
TGI (TK-10 renal): > 100 µM
TGI (IGROV1 ovarian): > 100 µM
TGI (K-562 leukemia): > 100 µM
TGI (NCI-H460 lung): > 100 µM
TGI (SK-MEL-2 melanoma): > 100 µM
TGI (BT-549 breast): > 100 µM
TGI (OVCAR-3 ovarian): > 100 µM
TGI (ACHN renal): > 100 µM
TGI (SK-OV-3 ovarian): > 100 µM
TGI (OVCAR-4 ovarian): > 100 µM
TGI (EKVX NSCLC): > 100 µM
TGI (NCI-H23 lung): > 100 µM
TGI (SK-MEL-5 melanoma): > 100 µM
TGI (HCT-116 colon): > 100 µM
TGI (A498 renal): > 100 µM

CC(C)=CCc1c(O)c(CC=C(C)C)c2oc(-c3ccc(O)cc3O)c(CC=C(C)C)c(=O)c2c1O
TGI (MOLT-4 leukemia): 14.6 µM
TGI (SK-MEL-28 melanoma): 26.6 µM
TGI (MCF7 breast): 18.3 µM
TGI (RPMI-8226 leukemia): 10.9 µM
TGI (HOP-92 NSCLC): 23 µM
TGI (HCC-2998 colon): 11.7 µM
TGI (MDA-MB-435): 16.7 µM
TGI (LOX IMVI melanoma): 22.5 µM
TGI (UO-31 renal): 21.1 µM
TGI (SF-268 CNS): > 53.2 µM
TGI (M14 melanoma): 22.5 µM
TGI (CCRF-CEM leukemia): 5.83 µM
TGI (CAKI-1 renal): 25.4 µM
TGI (SF-295 CNS): 20.3 µM
TGI (HT29 colon): 22.8 µM
TGI (NCI-H522 lung): 24.9 µM
TGI (COLO 205 colon): > 59.5 µM
TGI (786-0 renal): 21.4 µM
TGI (SNB-19 CNS): 25.6 µM
TGI (HOP-62 NSCLC): 23.4 µM
TGI (DU-145 prostate): 25.2 µM
TGI (SF-539 CNS): 32.7 µM
TGI (KM12 colon): 16.7 µM
TGI (RXF 393 renal): 14.6 µM
TGI (SW-620 colon): 23.3 µM
TGI (MDA-MB-231 breast): 27.6 µM
TGI (A549 NSCLC): 24.2 µM
TGI (NCI/ADR-RES ovarian): 53.4 µM
TGI (UACC-62 melanoma): 20.3 µM
TGI (UACC-257 melanoma): 25.6 µM
TGI (SNB-75 CNS): 22.7 µM
TGI (T-47D breast): 12.8 µM
TGI (HL-60(TB) leukemia): 21.7 µM
TGI (NCI-H226 lung): 47.6 µM
TGI (MALME-3M melanoma): 33.4 µM
TGI (HS 578T breast): 45.6 µM
TGI (OVCAR-5 ovarian): 28.3 µM
TGI (HCT-15 colon): 23.8 µM
TGI (OVCAR-8 ovarian): 19.7 µM
TGI (U251 CNS): 22.8 µM
TGI (MDA-N): 20.4 µM
TGI (PC-3 prostate): 18.4 µM
TGI (SN12C renal): 21.1 µM
TGI (SR leukemia): 9.88 µM
TGI (TK-10 renal): 21.2 µM
TGI (IGROV1 ovarian): 23.6 µM
TGI (K-562 leukemia): 27.4 µM
TGI (NCI-H460 lung): 17.8 µM
TGI (SK-MEL-2 melanoma): 12.8 µM
TGI (BT-549 breast): 21.6 µM
TGI (OVCAR-3 ovarian): 19.6 µM
TGI (ACHN renal): 20.9 µM
TGI (SK-OV-3 ovarian): 26.2 µM
TGI (OVCAR-4 ovarian): 18.1 µM
TGI (EKVX NSCLC): 27.9 µM
TGI (NCI-H23 lung): 22 µM
TGI (SK-MEL-5 melanoma): 23 µM
TGI (HCT-116 colon): 17 µM
TGI (A498 renal): 27.3 µM
